Experimental data reported in patent publication US5516790A, “Synthesis and application of alkyl-substituted dibenzofurans as antitumorigenic agents” (Texas A&M University System Technology Licensing Office, priority 1994, dated 1996).

Columns and labels:
160-kDa protein = format: cell-based, human;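 as to Secreted 160-kDa protein: MCF-7 human breast cancer cells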
Description: (§1) On day 0, the media was removed and the cells were rinsed two times with PBS. […] The cells were allowed to incubate for 48 h. […] After 6 h, the media was removed, 10 μl was counted and the remaining media was used for analysis of secreted proteins.
(§2) The secreted proteins were analyzed by sodium dodecyl sulfate (SDS) polyacrylamide gel electrophoresis; 30 μl of the media was mixed with an equal volume of buffer containing SDS, β-mercaptoethanol, glycerol, Tris and bromophenol blue. The samples were heated for 2 minutes in a boiling water bath and 50 μl of each sample was loaded onto a 1.5 mm thick 12% acrylamide slab gel (containing 0.075% bisacrylamide) with a 3% stacking gel (containing 0.15% bisacrylamide). The gels were run at […] overnight and processed for fluorography (using Enhance: Dupont) and exposed to Kodak X-OMAT film for 10 days at -80° C. The molecular weights of the proteins were estimated by their mobility relative to a set of standard proteins with known molecular weights.
(§3) The incorporation of ^35 S-methionine into the 34-kDa, 52-kDa and 160-kDa proteins was estimated by scanning the films using a Zeineh Soft Laser Scanning Densitometer (model SLR-20/10) from Biomedical Instruments,Inc. The percentage of the area of the scans due to the particular protein was then compared between the experimental and control samples and the results are presented as means ± SD for at least three samples per treatment group.

34-kDa protein = format: cell-based, human;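 as to Secreted 34-kDa protein: MCF-7 human breast cancer cells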
Description: as §1, §2, §3

52-kDa protein = format: cell-based, human; conditions: mcf-7 cells, 48 h, 0.001 µM
Description: as §1, §2, §3

female rat uterus = test: Antiestrogenic effect on uterine wet weight, immature female Sprague-Dawley rats (Example 8); format: in vivo
estrogen receptor (ER) = test: Uterine estrogen receptor levels, hydroxyapatite assay (Example 8); format: in vivo, female Sprague-Dawley rats
Description: A second group of animals was similarly treated with corn oil, TCDD, MCDF, or TCDD plus MCDF, all administered in corn oil at 10 ml/kg and terminated 72 hours later.
(§4) The animals were terminated by cervical dislocation. Livers were perfused with ice-cold TEDG buffer (10 mM Tris-HCl, 1.5 mM EDTA-4Na, 1 mM dithiothreitol, 10% glycerol (v/v), pH 7.4). Following perfusion in situ, livers were removed, weighed, and homogenized in ice-cold TEDG buffer. Uteri were also removed, weighed, and homogenized in ice-cold buffer. The homogenates were then centrifuged at 800×g ([…]) for 15 minutes and the nuclear pellets were stored at -80° C. The supernatants were further centrifuged at 180,000× g for 1.5 hours. The cytosolic supernatant was also stored at -80° C. Estrogen and progesterone receptor levels were determined within 7 days.
(§5) Estrogen (ER) and progesterone (PR) receptor levels were determined by the hydroxyapatite assay as described by Clark et al. (J. Steroid Biochem. 16:323-328, 1982) and incorporated herein by reference. […] Following the incubations, samples were counted and specific binding was calculated by subtraction of nonspecific from total binding. Assuming one steroid molecule binds to one estrogen/progesterone receptor, the number of moles of receptor can be calculated given the specific activity of the radioligand. The data presented in Tables 1 through 6 are means ± SD using at least four animals per treatment group. Significant differences were determined by analysis of variance.

[1] = test system: progesterone receptor (PR); test: Uterine progesterone receptor levels, hydroxyapatite assay (Example 8); format: in vivo, female Sprague-Dawley rats
Description: as §4, §5

[2] = 17β-estradiol alone, 1 nM, 2880 min
[3] = Table 9, 17β-estradiol alone (1 nM), 2880 min
[4] = Table 3: 50 μmol/kg + E-2 (2 × 10 μg/rat)
[5] = Table 3: compound alone, 50 μmol/kg (17β-estradiol: 2 × 10 μg/rat)

Structure (SMILES) | Secreted 160-kDa protein (160-kDa protein; [2]) | Protein Secretion, 160-kDa (160-kDa protein; [3]) | increase in secretion of the 160-kDa protein (160-kDa protein; mcf-7 cells, 48 h, 0.001 µM) | Secreted 34-kDa protein (34-kDa protein; [2]) | Protein Secretion, 34-kDa (34-kDa protein; [3]) | increase in secretion of the 34-kDa protein (34-kDa protein; mcf-7 cells, 48 h, 0.001 µM) | increase in secretion of the 52-kDa protein (52-kDa protein) | Uterine Wet Weight (female rat uterus; [4]) | Uterine Wet Weight (female rat uterus; [5]) | Estrogen Receptor Levels, Cytosolic (estrogen receptor (ER); [4]) | Estrogen Receptor Levels, Nuclear (estrogen receptor (ER); [4]) | Estrogen Receptor Levels, Cytosolic (estrogen receptor (ER); [5]) | Estrogen Receptor Levels, Nuclear (estrogen receptor (ER); [5]) | Progesterone Receptor Levels, Cytosolic [1, 4] | Progesterone Receptor Levels, Nuclear [1, 4] | Progesterone Receptor Levels, Cytosolic [1, 5] | Progesterone Receptor Levels, Nuclear [1, 5]
C[C@]12CC[C@@H]3c4ccc(O)cc4CC[C@H]3[C@@H]1CC[C@@H]2O [17β-Estradiol] | 371 ± 27.1% of the values for control | 228 % of Control | 3.81 fold | 282 ± 17.6% of the values for control | 201 % of Control | 3.72 fold | 4.97 fold | – | – | – | – | – | – | – | – | – | –
Cc1cc2oc3cc(Cl)c(Cl)cc3c2cc1Cl [7-Methyl-2,3,-triCDF, 7-methyl-2,3,8-trichlorodibenzofuran] | – | – | – | – | – | – | – | 0.255 ± 0.017 % body wt | 0.102 ± 0.011 % body wt | 94.2 ± 4.71 fmol/mg protein | 48.1 ± 2.4 fmol/mg protein | 72.9 ± 3.7 fmol/mg protein | 35.2 ± 1.8 fmol/mg protein | 924 ± 74 fmol/mg protein | 554 ± 39 fmol/mg protein | 501 ± 35 fmol/mg protein | 364 ± 26 fmol/mg protein
